Laboratory results taken from ChEMBL document CHEMBL1201862, “PubChem BioAssay data set” (2004).
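Where inhibition never reached the appropriate level, the endpoint shown equals the highest concentration tested. Otherwise, values were interpolated linearly from a five-concentration, 48-hour dose response in 96-well plates. GI50 = concentration required for 50% inhibition of growth.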 Activity calls are given as the source filed them. Rule as the data show it: active = GI50 up to about 1.1 µM and inactive = higher.

Assays:
Assay in all cases: inhibition of tumour cell growth, NCI panel, 48 h
786-0 = system: 786-0
A498 = system: A498
A549 = system: A549
ACHN = system: ACHN
BT-549 = system: BT-549
CAKI-1 = system: CAKI-1
CCRF-CEM = system: CCRF-CEM
COLO 205 = system: COLO 205
DU-145 = system: DU-145
EKVX = system: EKVX
HCC 2998 = system: HCC 2998
HCT-116 = system: HCT-116
HCT-15 = system: HCT-15
HL-60 = system: HL-60
HOP-62 = system: HOP-62
HOP-92 = system: HOP-92
HT-29 = system: HT-29
Hs-578T = system: Hs-578T
IGROV-1 = system: IGROV-1
K562 = system: K562
LOX IMVI = system: LOX IMVI
M14 = system: M14
MCF7 = system: MCF7
MDA-MB-231 = system: MDA-MB-231
MDA-MB-435 = system: MDA-MB-435
MDA-N = system: MDA-N
MOLT-4 = system: MOLT-4
Malme-3M = system: Malme-3M
NCI-H226 = system: NCI-H226
NCI-H23 = system: NCI-H23
NCI-H460 = system: NCI-H460
NCI-H522 = system: NCI-H522
OVCAR-3 = system: OVCAR-3
OVCAR-4 = system: OVCAR-4
OVCAR-5 = system: OVCAR-5
PC-3 = system: PC-3
RPMI-8226 = system: RPMI-8226
RXF 393 = system: RXF 393
SF-268 = system: SF-268
SF-295 = system: SF-295
SF-539 = system: SF-539
SK-MEL-28 = system: SK-MEL-28
SK-MEL-2 = system: SK-MEL-2
SK-MEL-5 = system: SK-MEL-5
SK-OV-3 = system: SK-OV-3
SN12C = system: SN12C
SNB-19 = system: SNB-19
SR = system: SR
SW-620 = system: SW-620
T47D = system: T47D
TK-10 = system: TK-10
U-251 = system: U-251
UACC-257 = system: UACC-257
UACC-62 = system: UACC-62
UO-31 = system: UO-31
KM12 = system: KM12
NCI/ADR-RES = system: NCI/ADR-RES
OVCAR-8 = system: OVCAR-8
SNB-75 = system: SNB-75

With `CNc1ncnc2c1cnn2CCCCO` the GI50 (786-0) was > 100 µM (inactive), the GI50 (A498) was > 100 µM (inactive) and the GI50 (A549) was > 100 µM (inactive). The GI50 (ACHN) was > 100 µM (inactive), the GI50 (BT-549) was > 100 µM (inactive) and the GI50 (CAKI-1) was > 100 µM (inactive). The GI50 (CCRF-CEM) was > 100 µM (inactive), the GI50 (COLO 205) was > 100 µM (inactive) and the GI50 (DU-145) was > 100 µM (inactive). For the same compound, the GI50 (EKVX) was > 100 µM (inactive), the GI50 (HCC 2998) was > 100 µM (inactive) and the GI50 (HCT-116) was > 100 µM (inactive). The GI50 (HCT-15) was > 100 µM, the GI50 (HL-60) was > 100 µM (inactive) and the GI50 (HOP-62) was > 100 µM (inactive). The GI50 (HOP-92) was > 100 µM (inactive), the GI50 (HT-29) was > 100 µM (inactive) and the GI50 (Hs-578T) was > 100 µM (inactive). For the same compound, the GI50 (IGROV-1) was > 100 µM (inactive), the GI50 (K562) was > 100 µM (inactive) and the GI50 (LOX IMVI) was > 100 µM (inactive). For the same compound, the GI50 (M14) was > 100 µM (inactive), the GI50 (MCF7) was > 100 µM (inactive) and the GI50 (MDA-MB-231) was > 100 µM (inactive). The GI50 (MDA-MB-435) was > 100 µM (inactive), the GI50 (MDA-N) was > 100 µM (inactive) and the GI50 (MOLT-4) was > 100 µM (inactive). For the same compound, the GI50 (Malme-3M) was > 100 µM (inactive), the GI50 (NCI-H226) was > 100 µM (inactive) and the GI50 (NCI-H23) was > 100 µM (inactive). For the same compound, the GI50 (NCI-H460) was > 100 µM (inactive), the GI50 (NCI-H522) was > 100 µM (inactive) and the GI50 (OVCAR-3) was > 100 µM (inactive). The GI50 (OVCAR-4) was > 100 µM (inactive), the GI50 (OVCAR-5) was > 100 µM (inactive) and the GI50 (PC-3) was > 100 µM (inactive). For the same compound, the GI50 (RPMI-8226) was > 100 µM (inactive), the GI50 (RXF 393) was > 100 µM (inactive) and the GI50 (SF-268) was > 100 µM (inactive). For the same compound, the GI50 (SF-295) was > 100 µM (inactive), the GI50 (SF-539) was > 100 µM (inactive) and the GI50 (SK-MEL-28) was > 100 µM (inactive). For the same compound, the GI50 (SK-MEL-2) was > 100 µM (inactive), the GI50 (SK-MEL-5) was > 100 µM (inactive) and the GI50 (SK-OV-3) was > 100 µM (inactive). The GI50 (SN12C) was > 100 µM (inactive), the GI50 (SNB-19) was > 100 µM (inactive) and the GI50 (SR) was > 100 µM (inactive). The GI50 (SW-620) was > 100 µM (inactive), the GI50 (T47D) was > 100 µM (inactive) and the GI50 (TK-10) was > 100 µM (inactive). The GI50 (U-251) was > 100 µM (inactive), the GI50 (UACC-257) was > 100 µM (inactive) and the GI50 (UACC-62) was > 100 µM (inactive). The GI50 (UO-31) was > 100 µM (inactive).
For `Cc1ccc(/N=N/NCCCCN)cc1`, the GI50 (786-0) was > 100 µM (inactive), the GI50 (A498) was > 100 µM (inactive) and the GI50 (A549) was 8.75 µM (inactive). For the same compound, the GI50 (ACHN) was 12.6 µM (inactive), the GI50 (BT-549) was > 100 µM (inactive) and the GI50 (CAKI-1) was > 100 µM (inactive). For the same compound, the GI50 (CCRF-CEM) was 9.64 µM (inactive), the GI50 (COLO 205) was > 100 µM (inactive) and the GI50 (DU-145) was > 100 µM (inactive). For the same compound, the GI50 (EKVX) was > 100 µM (inactive), the GI50 (HCC 2998) was > 100 µM (inactive) and the GI50 (HCT-116) was > 100 µM (inactive). For the same compound, the GI50 (HCT-15) was > 100 µM, the GI50 (HL-60) was 3.79 µM (inactive) and the GI50 (HOP-62) was > 100 µM (inactive). For the same compound, the GI50 (HOP-92) was > 100 µM (inactive), the GI50 (HT-29) was > 100 µM (inactive) and the GI50 (Hs-578T) was > 100 µM (inactive). The GI50 (IGROV-1) was > 100 µM (inactive), the GI50 (K562) was > 10 µM (inactive) and the GI50 (KM12) was 81.7 µM (inactive). For the same compound, the GI50 (LOX IMVI) was 10.1 µM (inactive), the GI50 (M14) was > 100 µM (inactive) and the GI50 (MCF7) was > 100 µM (inactive). The GI50 (MDA-MB-231) was > 100 µM (inactive), the GI50 (MDA-MB-435) was > 100 µM (inactive) and the GI50 (MDA-N) was > 100 µM (inactive). The GI50 (MOLT-4) was 7.26 µM (inactive), the GI50 (Malme-3M) was > 100 µM (inactive) and the GI50 (NCI-H226) was > 100 µM (inactive). The GI50 (NCI-H23) was > 100 µM (inactive), the GI50 (NCI-H522) was > 100 µM (inactive) and the GI50 (NCI/ADR-RES) was > 100 µM (inactive). The GI50 (OVCAR-4) was > 100 µM (inactive), the GI50 (OVCAR-5) was > 100 µM (inactive) and the GI50 (OVCAR-8) was > 100 µM (inactive). The GI50 (RPMI-8226) was 5.86 µM (inactive), the GI50 (RXF 393) was > 100 µM (inactive) and the GI50 (SF-268) was > 100 µM (inactive). For the same compound, the GI50 (SF-295) was 19.3 µM (inactive), the GI50 (SF-539) was > 100 µM (inactive) and the GI50 (SK-MEL-2) was > 100 µM (inactive). For the same compound, the GI50 (SK-MEL-5) was 23.8 µM (inactive), the GI50 (SK-OV-3) was > 100 µM (inactive) and the GI50 (SN12C) was > 100 µM (inactive). The GI50 (SNB-19) was 49.2 µM (inactive), the GI50 (SNB-75) was > 100 µM (inactive) and the GI50 (SR) was > 100 µM (inactive). The GI50 (SW-620) was > 100 µM (inactive), the GI50 (T47D) was > 100 µM (inactive) and the GI50 (TK-10) was > 100 µM (inactive). For the same compound, the GI50 (UACC-257) was > 100 µM (inactive), the GI50 (UACC-62) was > 100 µM (inactive) and the GI50 (UO-31) was 12.2 µM (inactive).
